Test results taken from patent publication US6620844B2, “Method for reducing blood insulin levels by reducing in vivo cathepsin L activity” (NewMillennium Pharmaceutical, Inc., priority 2001, dated 2003).
“Also recorded” adds a separate entry of the source. Blank lines part the entries; values can stand above or below the compound they belong to.

What was measured:
Cathepsin L [1] = molecular target: Cathepsin L (Homo sapiens, UniProt P07711); details: cited from earlier work
Cathepsin B [2] = molecular target: Cathepsin B (Homo sapiens, UniProt P07858); details: cited from earlier work
Papain = molecular target: T1, Papain (Carica papaya, UniProt P00784); details: cited from earlier work
T1 sequence (P00784 134-345): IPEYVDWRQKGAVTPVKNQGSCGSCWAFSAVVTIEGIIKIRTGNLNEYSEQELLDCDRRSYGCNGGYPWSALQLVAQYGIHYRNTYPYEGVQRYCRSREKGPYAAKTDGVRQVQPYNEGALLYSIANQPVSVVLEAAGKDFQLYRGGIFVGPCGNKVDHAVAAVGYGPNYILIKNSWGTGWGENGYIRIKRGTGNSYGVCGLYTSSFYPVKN

[3] = test system: CCAAT/enhancer-binding protein-α (C/EBP-α); experiment: C/EBP-α levels in human preadipocytes, Western blot; type: cell-based; details: human preadipocytes differentiated with inhibitor, FIG. 4
Method: FIG. 4. Inhibition of cathepsin L blocked the expression of CCAAT/enhancer-binding protein. Human preadipocytes were differentiated as in FIG. 2. A 10% gel was used to perform Western blot analysis using goat anti-human C/EBP-α polyclonal antibodies and the blot was detected using the corresponding HRP-conjugated secondary antibodies.
(§1) Human preadipocytes were initially cultured in MSCGM medium (BioWhitaker) at 37° C. and 5% CO2 for 7 to 12 days with 3-4 changes of media till complete confluence. Non-induced cells were kept in adipogenesis maintenance media containing 0.01 mg/ml of insulin, 0.05 units/ml of penicillin, 0.05 μg/ml of streptomycin, and 10% fetal bovine serum. To induce adipogenesis, complete confluent cells were cultured in adipogenesis induction medium containing 1 μM dexamethasone, 0.2 mM indomethacin, 0.01 mg/ml insulin, 0.5 mM 3-isobutyl-1-methyl-xanthine, 0.05 units/ml of penicillin, 0.05 μg/ml of streptomycin, and 10% fetal bovine serum in the presence and absence of protease inhibitors for 3 days followed by three days of culture in maintenance media. After three cycles of induction and maintenance, cells were cultured in maintenance media for additional 7 days with two changes of fresh media.
(§2) To evaluate the cell differentiation levels affected by aforementioned inhibitors, the levels of transcription factors CCAAT/enhancer-binding protein-α (C/EBP-α) as well as peroxisome proliferator-activated receptor-γ (PPAR-γ) from cells treated with and without inhibitors were measured. Both C/EBP-α and PPAR-γ are important adipocyte determination factors. Wu et al. (1999) Mol. Cell. 3:151-158; Tanaka et al. (1997) EMBO J. 16:7432-7443; and Tontonoz et al. (1994) Cell 79:1147-1156.

cathepsin L [4] = molecular target: T2, cathepsin L (Mus musculus, UniProt P06797); experiment: Cysteine protease active site labeling in mouse peritoneal macrophages: cathepsin L; type: cell-based; details: 10 μM, mouse peritoneal macrophages
T2 construct: endogenous in cells; host or cells: thioglycolate-elicited mouse peritoneal macrophages
T2 sequence (P06797 114-334): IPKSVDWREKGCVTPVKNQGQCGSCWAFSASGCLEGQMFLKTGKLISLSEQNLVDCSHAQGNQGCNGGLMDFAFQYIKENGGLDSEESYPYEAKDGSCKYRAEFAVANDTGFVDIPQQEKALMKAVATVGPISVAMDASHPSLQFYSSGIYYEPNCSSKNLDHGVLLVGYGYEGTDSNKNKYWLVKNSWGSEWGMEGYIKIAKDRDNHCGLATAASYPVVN
Method: (§3) FIG. 1. Cysteine protease inhibition profile by synthetic inhibitors in mouse peritoneal macrophages. [^125I]-Z-Tyr-Ala-CHN2-labeled mouse peritoneal macrophages were lysed and separated onto 12% SDS-PAGE to visualize labeled active cathepsins. Doses and inhibitors used were all indicated.
(§4) Mouse peritoneal macrophages were generated by injecting mice with thioglycolate as described in Shi et al. (2000) J. Exp. Med. 191:[…]. After 3-4 days of incubation, peritoneal microphages were washed out using Tris-EDTA buffers containing 6 mM EDTA (pH 8.0). Cells were then seeded onto 24-well plates in DMEM with 10% FBS till complete spread. After cells were attached to the plates, different doses of inhibitors were added. After 2-3 hours of incubation, cells were labeled with [^125I]-Z-Tyr-Ala-CHN2 overnight at 37° C. to detect intracellular active cysteine proteases. Cells were lysed into 1× reducing protein sample buffer and separated onto 12% SDS-PAGE.
(§5) First, the synthetic small molecule compounds were tested for their selectivity toward different forms of cathepsin. Mouse peritoneal macrophages were cultured in the presence of selective inhibitors and cysteine protease active site labeling probe [^125I]-Z-Tyr-Ala-CHN2 (Sukhova et al., supra). […] In contrast, other inhibitors used had no effect on cathepsin B activity. […] Therefore, these inhibitors can be utilized to test if the aforementioned cathepsins play roles in the breakdown of insulin receptor (IR) or IR turnover.

mouse 3T3-L1 cells = experiment: Mouse 3T3-L1 preadipocyte adipogenesis, oil-red staining; type: cell-based; details: 15 μM
Method: FIG. 9. Effect of cathepsin L inhibitor during mouse 3T3-L1 preadipocyte differentiation. Mouse 3T3-L1 cells were induced for adipogenesis. CLIK 148 (10 μM) was […] at different time points (days) during adipogenesis. Cells were stained with oil-red at the end of differentiation.
Mouse preadipocytes were differentiated as described in Patel and Lane (2000) J. Biol. Chem. 275:17653-17660. In brief, mouse 3T3-L1 cells were cultured in DMEM containing 10% calf serum till confluence at 37° C. with 10% CO2. After additional two days maintenance in the same media, cells were differentiated by adding 0.5 mM methylisobutylxanthine, 1 μM dexmethasone, 1 μg/ml insulin, and 10% FBS for two days in the presence and absence of protease inhibitors. Culture media were replaced with DMEM containing 1 μg/ml insulin and 10% FBS. After day 4 the cells were fed every other day with 10% FBS in DMEM without insulin. By days 7-8, cells were fully differentiated.
Similar phenotypes were observed using mouse preadipocytes 3T3-L1 (ATCC, Manassas, Va.). Both active cathepsins L and S were found in differentiated adipocytes (FIG. 8, days 8-11). However, levels of both enzyme increased after the differentiation, a phenomenon different from that of human preadipoicytes. […] Cathepsin K antigen was detected in preadipocytes but not adipocytes nor insulin treated cells (FIG. 10).

[5] = test system: peroxisome proliferator-activated receptor-γ (PPAR-γ); experiment: PPAR-γ levels in human preadipocytes, Western blot; type: cell-based; details: human preadipocytes differentiated with inhibitor, FIG. 5
Method: FIG. 5. Inhibition of cathepsin L blocked the expression of PPAR-γ. Human preadipocytes were used and Western blot analysis was performed as in FIG. 4 instead of using mouse anti-human PPAR-γ monoclonal antibodies as the primary antibodies.
as §1, §2

[6] = test system: insulin receptor β subunit; experiment: Insulin receptor turnover in human preadipocytes, Western blot; type: cell-based; details: 10 μM, human preadipocytes
Method: FIG. 2. […] Human preadipocytes were incubated with and without inhibitors indicated at different doses, lysed, separated onto 7% SDS-PAGE, and probed with goat anti-human insulin receptor β-subunit polyclonal antibodies. Both mature β subunit and its precursor were indicated.
as §1
(§6) After differentiation, cells were collected, and lysed into 1×RIPA buffer. Protein concentrations were determined using Bio-Rad Dc protein assay system according to the manufacturer (Bio-Rad, Hercules, Calif.). Equal amount of proteins were separated on 7% SDS-PAGE for detecting IR and IGF-1R, 12% SDS-PAGE for detecting cathepsins S, K, and L antigens. Both IR and IGF-1R primary polyclonal antibodies were raised from goat and all cathepsin antibodies were polyclonal antibodies raised from rabbit. The corresponding HRP-conjugated secondary antibodies were used for detections.
To test which cathepsin is involved in the IR turnover, human preadipocytes (BioWhittaker, Walkersville, Md.) were induced to become adipocytes in the presence and absence of inhibitors. Differentiated adipocytes expressed more IR than controls as previously reported. Pederson et al. (2000) Biochem. Biophys. Res. Commun. 276:162-168. Cathepsin B inhibitor (CA 074, 10 μM) and catepsin S inhibitor (CLIK 060, 2 μM) had no effect on either IR turnover or differentiation (FIGS. 2). […] The same is true when the blot was tested with insulin like growth factor I receptor (IGF-IR) antibodies (FIG. 3).

[7] = test system: insulin like growth factor I receptor (IGF-IR); experiment: IGF-IR levels in human preadipocytes, Western blot; type: cell-based; details: 10 μM
Method: FIG. 3. […] Cells were treated as in FIG. 2. Western blot analysis was performed using goat anti-human IGF-1R polyclonal antibodies.
as §1, §6
To test which cathepsin is involved in the IR turnover, human preadipocytes (BioWhittaker, Walkersville, Md.) were induced to become adipocytes in the presence and absence of inhibitors. Differentiated adipocytes expressed more IR than controls as previously reported. Pederson et al. (2000) Biochem. Biophys. Res. Commun. 276:162-168. Cathepsin B inhibitor (CA 074, 10 μM) and catepsin S inhibitor (CLIK 060, 2 μM) had no effect on either IR turnover or differentiation (FIGS. 2). […]

cathepsin B [8] = molecular target: T3, cathepsin B (Mus musculus, UniProt P10605); experiment: Cysteine protease active site labeling in mouse peritoneal macrophages: cathepsin B; type: cell-based; details: 10 μM
T3 construct: endogenous in cells; host or cells: thioglycolate-elicited mouse peritoneal macrophages
T3 sequence (P10605 80-333 limits assumed): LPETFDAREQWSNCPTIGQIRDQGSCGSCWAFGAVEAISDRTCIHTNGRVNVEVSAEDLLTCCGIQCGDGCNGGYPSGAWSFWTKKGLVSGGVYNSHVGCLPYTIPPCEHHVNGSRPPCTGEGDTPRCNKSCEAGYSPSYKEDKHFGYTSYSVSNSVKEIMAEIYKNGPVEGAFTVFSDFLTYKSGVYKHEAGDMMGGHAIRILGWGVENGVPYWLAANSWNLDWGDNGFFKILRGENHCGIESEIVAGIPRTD
Method: as §3, §4, §5

human preadipocytes = experiment: Human preadipocyte adipogenesis, oil-red staining; type: cell-based; details: 10 μM, human preadipocytes
Method: FIG. 6. Oil-red staining of human preadipocytes and adipocytes.
as §1
This hypothesis is further confirmed by oil-red staining of CLIK 148 or 195 treated preadipocytes (FIG. 6). In addition, inhibition of adiogenesis by these two inhibitors is dose dependent. Less than 50% of adipogenesis was blocked by 1 μM of such inhibitors. […] In contrast, 1 μM of CLIK 060, 1 or 10 μM of CA 074 had no effect on adipogenesis (data not shown). Therefore, these observations indicate that cathepsin L appears to play a more critical role than cathepsins S and K in adipogenesis by controlling insulin/IR complex turnover.

cathepsin K [9] = molecular target: T4, cathepsin K (Mus musculus, UniProt P55097); experiment: Cysteine protease active site labeling in mouse peritoneal macrophages: cathepsin K; type: cell-based; details: 10 μM
T4 construct: endogenous in cells; host or cells: thioglycolate-elicited mouse peritoneal macrophages
T4 sequence (P55097 115-329): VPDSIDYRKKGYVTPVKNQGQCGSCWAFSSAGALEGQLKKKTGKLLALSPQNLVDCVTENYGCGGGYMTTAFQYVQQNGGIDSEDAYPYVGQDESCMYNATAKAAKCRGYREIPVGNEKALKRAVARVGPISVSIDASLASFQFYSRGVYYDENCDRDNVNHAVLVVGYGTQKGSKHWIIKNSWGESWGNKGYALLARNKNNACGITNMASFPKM
Method: as §3, §4, §5

Cathepsin K [10] = molecular target: T5, Cathepsin K (Homo sapiens, UniProt P43235); details: cited from earlier work
T5 sequence (P43235 115-329): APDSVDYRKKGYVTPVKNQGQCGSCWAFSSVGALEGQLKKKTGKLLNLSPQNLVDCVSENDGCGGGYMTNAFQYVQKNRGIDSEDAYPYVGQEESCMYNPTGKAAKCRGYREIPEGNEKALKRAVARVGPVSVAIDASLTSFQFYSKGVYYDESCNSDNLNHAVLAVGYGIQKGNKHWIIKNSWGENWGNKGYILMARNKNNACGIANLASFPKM

[11] = test system: rat model of human glomerular disease; details: cited from earlier work
Cathepsin C = Cathepsin C (Homo sapiens, UniProt P53634); details: at 1 × 10^−6 M; cited from earlier work
Chain of Cathepsin C (P53634 25-463, species assumed): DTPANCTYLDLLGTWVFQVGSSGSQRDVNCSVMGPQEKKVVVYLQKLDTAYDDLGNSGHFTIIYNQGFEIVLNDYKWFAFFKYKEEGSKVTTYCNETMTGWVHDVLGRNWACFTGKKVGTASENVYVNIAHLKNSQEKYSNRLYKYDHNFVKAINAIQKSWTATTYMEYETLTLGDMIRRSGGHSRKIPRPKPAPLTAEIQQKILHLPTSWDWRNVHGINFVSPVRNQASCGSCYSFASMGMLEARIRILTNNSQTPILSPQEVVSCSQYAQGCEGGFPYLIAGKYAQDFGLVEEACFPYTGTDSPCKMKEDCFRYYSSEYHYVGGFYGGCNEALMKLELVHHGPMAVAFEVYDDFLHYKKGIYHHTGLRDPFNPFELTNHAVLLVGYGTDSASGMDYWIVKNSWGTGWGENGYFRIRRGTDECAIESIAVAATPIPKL

Cathepsin S = Cathepsin S (Homo sapiens, UniProt P25774); details: at 1 × 10^−6 M; cited from earlier work
Chain of Cathepsin S (P25774 115-331, species assumed): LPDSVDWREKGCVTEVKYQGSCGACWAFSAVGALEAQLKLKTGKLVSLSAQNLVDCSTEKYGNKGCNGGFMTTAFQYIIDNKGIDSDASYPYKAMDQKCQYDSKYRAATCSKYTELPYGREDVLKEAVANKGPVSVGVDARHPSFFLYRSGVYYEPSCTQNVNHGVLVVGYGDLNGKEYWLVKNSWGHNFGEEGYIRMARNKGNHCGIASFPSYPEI

Chain of Cathepsin L (P07711 114-333, species assumed): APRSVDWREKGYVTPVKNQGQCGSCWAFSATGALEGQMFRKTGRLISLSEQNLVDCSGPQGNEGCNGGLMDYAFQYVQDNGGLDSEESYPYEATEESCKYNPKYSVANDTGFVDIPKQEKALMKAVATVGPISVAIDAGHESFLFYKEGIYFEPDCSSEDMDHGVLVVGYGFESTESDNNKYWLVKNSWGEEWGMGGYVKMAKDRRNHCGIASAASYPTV

SMILES: CCOC(=O)[C@H]1N[C@@H]1C(=O)NC(CC(C)C)C(=O)COC(=O)c1ccccc1 (stereo partly shown)
Cathepsin L: K2nd (Cathepsin L [1]): 16,261 M^−1Min^−1
Cathepsin B: K2nd (Cathepsin B [2]): 1,607 M^−1Min^−1
Papain: K2nd (Papain): 1,533 M^−1Min^−1

cathepsin L activity (active site labeling) (cathepsin L [4]): completely inhibited
cathepsin B activity (active site labeling) (cathepsin B [8]): not
cathepsin K activity (active site labeling) (cathepsin K [9]): not
SMILES: CN(C)C(=O)[C@H](Cc1ccccc1)NC(=O)[C@H]1O[C@@H]1C(=O)NCCc1ccccn1 (relative stereo) [CLIK 148, L-(+)-(2S, 3S)-N-[2-(2′-pyridinyl)-1-ethyl]-Na-amino-(L-phenylalaninedimethylamide)-trans-epoxysuccinamide]
accumulation of 50 kDa C/EBP-α [3]: blocking the accumulation
inhibition of adipogenesis in 3T3-L1 cells (mouse 3T3-L1 cells): inhibition of adipogenesis
accumulation of 50 kDa PPAR-γ [5]: blocking the accumulation
levels of 95 kDa IR β subunit and its precursor [6]: increased levels
levels of IGF-IR β subunit and its precursor (the same as for IR) [7]: increased levels
inhibition of adipogenesis / differentiation (human preadipocytes): complete inhibition; also recorded: completely blocked

SMILES: O=C(CNC(=O)[C@H](Cc1ccccc1)NC(=O)OCc1ccccc1)NOC(=O)c1ccccc1
Ki (Cathepsin L [1]): 0.04 to 0.08 nM
Ki (Cathepsin B [2]): 0.8 to 0.9 nM
Ki (Cathepsin K [10]): 12 to 16 nM
Ki (Papain): 2 to 5 nM

SMILES: CC(C)CCNC(=O)[C@H](CC(C)C)NC(=O)[C@H]1O[C@@H]1C(=O)O (relative stereo) [trans-epoxysuccinyl-L-leucylamido-(3-methyl)butane]
proteinuria [11]: significantly reduced

SMILES: CN(C)C(=O)[C@H](Cc1ccccc1)NC(=O)C1O[C@@H]1C(=O)NCCc1ccccn1 (stereo partly shown)
% of Inhibition, Cathepsin L (Cathepsin L [1]; at 1 × 10^−6 M): 100%
% of Inhibition, Cathepsin C (Cathepsin C): 0%
% of Inhibition, Cathepsin S (Cathepsin S): 30%
% of Inhibition, Cathepsin B (Cathepsin B [2]; at 1 × 10^−6 M): 0%
% of Inhibition, Cathepsin K (Cathepsin K [10]; at 1 × 10^−6 M): 0%
